Test results taken from patent publication US10889543B2, “Fine-tune modulators of neuronal excitability for neuropsychiatric disorders” (THE BOARD OF REGENTS OF THE UNIVERSITY OF TEXAS SYSTEM, priority 2016, dated 2021).
Residues, ends and D or L forms follow the SMILES beside them. *: point of attachment. Cbz = O=C(OCc1ccccc1)*; Boc = CC(C)(C)OC(=O)*

Experiments:
[1] = target: T1, FGF14:Nav1.6 complex (Homo sapiens, UniProt Q92915); experiment: Split-luciferase complementation assay (LCA) in HEK293 cells expressing CLuc-FGF14 and CD4-Nav1.6-NLuc; type: cell-based; conditions: 50 μM, normalized to DMSO control
T1 construct: FGF14 and the C-tail of Nav1.6 channels are fused to vectors expressing CLuc and NLuc luciferase reporter; expressed in transfected cells; host or cells: HEK293, transient transfection
T1 sequence (Q92915 1-252 isoform Q92915-2): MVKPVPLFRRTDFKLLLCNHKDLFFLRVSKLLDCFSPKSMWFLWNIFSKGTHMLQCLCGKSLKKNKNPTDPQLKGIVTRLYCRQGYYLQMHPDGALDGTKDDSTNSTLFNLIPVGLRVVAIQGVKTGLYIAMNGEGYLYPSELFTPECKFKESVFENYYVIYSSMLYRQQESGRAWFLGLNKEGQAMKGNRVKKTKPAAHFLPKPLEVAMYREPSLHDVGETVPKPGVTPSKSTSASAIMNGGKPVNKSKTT
Procedure: Detailed methods for LCA can be found is known in the art. See e.g., Shavkunov A. S., et al., Methods in Molecular Biology 1278:497-514 (2015). Statistical values were calculated as mean and standard error of the mean (mean±SEM), unless otherwise specified. The statistical significance (*p<0.05) of different groups was determined by Student's t-test, one-way ANOVA with post-hoc Bonferroni's method or Kruskal-Wallis one-way ANOVA on ranks with post-hoc Dunn's method using Sigma Stat (San Jose, Calif.) and Graph PrismR (La Jolla, Calif.) software. Dose-response modulation was determined by: y=START+(END−START)*x^n/(k^n+x^n) where k, Michaelis constant; n, cooperative sites; x, independent variable; y, dependable variable.
To monitor the role of compounds of the invention in the FGF14:Nav1.6 complex, certain embodiments of the invention were screened by split-luciferase complementation assay (LCA) where FGF14 and the C-tail of Nav1.6 channels are fused to vectors expressing CLuc and NLuc luciferase reporter. Compounds of the invention, as exemplified by, compounds ZL0141, ZL0148, ZL0181, and ZL0182 (see FIG. 1) were tested at 50 μM in HEK293 cells expressing CLuc-FGF14 and CD4:Nav1.6-NLuc. […] None of the tested compounds interfered with the full-length luciferase enzyme (FIG. 2B, Chart C). Dose-response studies were then performed with compounds ZL0148, ZL0181, and ZL0182 against the FGF14:Nav1.6 complex.

[2] = target: T2, Nav1.6 channels (Homo sapiens, UniProt Q9UQD0); experiment: Whole-cell patch clamp of Na+ currents in HEK-Nav1.6 cells expressing GFP (Nav1.6 channels alone); type: cell-based
T2 construct: expressed in transfected cells; host or cells: HEK-Nav1.6 (HEK293 stably expressing Nav1.6, G418 selection)
T2 sequence (Q9UQD0 whole entry): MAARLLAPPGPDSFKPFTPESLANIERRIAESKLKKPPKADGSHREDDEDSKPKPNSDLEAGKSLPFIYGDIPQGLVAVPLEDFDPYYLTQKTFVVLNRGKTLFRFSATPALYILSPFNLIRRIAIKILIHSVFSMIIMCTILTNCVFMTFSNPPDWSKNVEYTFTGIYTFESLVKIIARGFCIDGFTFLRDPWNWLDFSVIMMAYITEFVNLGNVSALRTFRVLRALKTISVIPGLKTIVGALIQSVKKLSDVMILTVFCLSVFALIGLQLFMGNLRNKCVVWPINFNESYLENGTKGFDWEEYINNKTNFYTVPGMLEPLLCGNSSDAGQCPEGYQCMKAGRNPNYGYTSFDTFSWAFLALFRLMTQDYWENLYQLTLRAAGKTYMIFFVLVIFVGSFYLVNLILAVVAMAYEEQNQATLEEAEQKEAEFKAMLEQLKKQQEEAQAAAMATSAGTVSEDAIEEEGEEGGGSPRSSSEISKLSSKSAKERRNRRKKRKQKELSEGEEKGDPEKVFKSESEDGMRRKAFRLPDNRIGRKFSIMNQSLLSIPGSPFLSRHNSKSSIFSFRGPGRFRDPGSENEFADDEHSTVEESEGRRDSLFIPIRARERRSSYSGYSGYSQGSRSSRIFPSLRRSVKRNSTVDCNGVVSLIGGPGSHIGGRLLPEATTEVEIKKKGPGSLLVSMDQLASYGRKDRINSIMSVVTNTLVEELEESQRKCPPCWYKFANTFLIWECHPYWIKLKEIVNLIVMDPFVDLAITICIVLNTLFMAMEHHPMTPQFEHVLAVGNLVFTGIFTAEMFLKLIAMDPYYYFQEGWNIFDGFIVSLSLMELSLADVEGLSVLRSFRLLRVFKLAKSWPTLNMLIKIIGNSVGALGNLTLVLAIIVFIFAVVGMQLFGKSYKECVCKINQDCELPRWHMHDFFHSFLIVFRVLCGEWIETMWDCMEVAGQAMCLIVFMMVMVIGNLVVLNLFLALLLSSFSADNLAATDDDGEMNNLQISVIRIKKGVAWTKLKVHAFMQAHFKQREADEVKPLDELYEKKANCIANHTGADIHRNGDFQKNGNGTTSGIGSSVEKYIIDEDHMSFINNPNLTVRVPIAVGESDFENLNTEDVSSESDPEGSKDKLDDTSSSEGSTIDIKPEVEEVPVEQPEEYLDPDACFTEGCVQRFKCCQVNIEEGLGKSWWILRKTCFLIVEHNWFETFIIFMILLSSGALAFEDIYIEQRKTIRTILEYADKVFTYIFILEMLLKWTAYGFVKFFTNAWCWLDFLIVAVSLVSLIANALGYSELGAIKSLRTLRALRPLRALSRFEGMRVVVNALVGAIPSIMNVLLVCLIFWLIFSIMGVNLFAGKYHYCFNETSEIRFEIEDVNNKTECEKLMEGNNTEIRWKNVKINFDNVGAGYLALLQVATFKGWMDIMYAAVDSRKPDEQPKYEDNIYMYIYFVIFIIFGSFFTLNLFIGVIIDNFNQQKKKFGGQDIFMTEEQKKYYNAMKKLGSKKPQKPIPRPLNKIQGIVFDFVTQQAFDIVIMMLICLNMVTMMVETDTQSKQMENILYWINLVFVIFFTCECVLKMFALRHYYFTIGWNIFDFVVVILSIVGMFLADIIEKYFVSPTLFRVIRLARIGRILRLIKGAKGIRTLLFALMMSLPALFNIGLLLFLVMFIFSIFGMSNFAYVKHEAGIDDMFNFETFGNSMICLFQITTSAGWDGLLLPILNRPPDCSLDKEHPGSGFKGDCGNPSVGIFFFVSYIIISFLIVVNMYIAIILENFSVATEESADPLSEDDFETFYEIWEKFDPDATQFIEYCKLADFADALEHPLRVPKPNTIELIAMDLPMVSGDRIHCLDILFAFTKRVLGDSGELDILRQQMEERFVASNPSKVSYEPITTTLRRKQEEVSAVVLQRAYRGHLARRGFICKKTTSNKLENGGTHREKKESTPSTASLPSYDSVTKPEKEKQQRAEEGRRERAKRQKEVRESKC
Procedure: To determine the role of compounds of the invention in Nav1.6 channels alone and Nav1.6 channels in the presence of FGF14, 2×2 experimental groups using compound ZL0181, an exemplary embodiment, were designed. HEK-Nav1.6 cells were transiently transfected with GFP or […] and treated with either DMSO (0.15% final concentration, control group) or ZL0181 (20 μM, final concentration) 20-60 min prior to the experiments. […] Thus, ZL0181 inhibits peak current amplitude of Na1.6 current.
Furthermore, using a range of doses from 1 μM to 100 μM a dose-response profile for ZL0181 in HEK293-Nav1.6 cells alone and HEK-Nav1.6 cells transfected with FGF14 was developed.
HEK-Nav1.1, […] HEK-Nav1.6 were maintained in medium composed of equal volumes of DMEM and F-12 (Invitrogen) supplemented with 0.05% glucose, 0.5 mm pyruvate, 10% fetal bovine serum, 100 units/ml penicillin, 100 μg/ml streptomycin incubated at 37° C. with 5% CO2. For selection of Nav1.1 and Nav1.2, 500 μg/ml G418 (Invitrogen) was used, and for selection of Nav1.6, 80 μg/ml G418 (Invitrogen) was used. Cells were transfected according to manufacturer's instructions at 90-100% confluency using Lipofectamine 2000 (Invitrogen). See e.g., Shavkunov, A., et al. Assay and drug development technologies 10(2):148-160 (2012).
Detailed methods for path-clamp experiments is known in the art. See e.g., Ali, S. R., et al., Journal of Biological Chemistry 291:11268 (2016).

[3] = target: T3, FGF14 (Homo sapiens, UniProt Q92915); experiment: Surface plasmon resonance spectroscopy, immobilized FGF14; type: binding; conditions: SPR, 25° C., 10-200 μM
T3 construct: made in house
T3 sequence (Q92915 64-252 isoform Q92915-2 limits assumed): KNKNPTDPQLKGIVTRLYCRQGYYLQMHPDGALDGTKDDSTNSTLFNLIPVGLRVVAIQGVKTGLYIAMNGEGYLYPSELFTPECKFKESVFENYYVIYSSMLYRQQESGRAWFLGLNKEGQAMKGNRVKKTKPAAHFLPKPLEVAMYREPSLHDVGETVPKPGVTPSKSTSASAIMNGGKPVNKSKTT
Procedure: Surface Plasmon Resonance Spectroscopy. SPR experiments were performed on a Biacore T100 instrument (Biacore GE), and the interaction between FGF14 to Nav1.6 channel was studied at 25° C. To analyze the effects of ZL0181 on channel binding, FGF14WT and Nav1.6 C-tail were immobilized using acetate 5.5 with amine coupling kit on CM5 sensor chip, and obtaining RU 3000 and 4500 respectively. No protein was coupled to the control flow channel of the chip. ZL0181 (5-200 μM) in HBS-P+(50 μl/min) buffer ([…], 150 mM NaCl, 0.005% (v/v) P20), pH 7.4 were injected over the chip for 180 s. Next, HB S-P+ buffer without protein were passed over the chip for 180 s to monitor dissociation, and the chip surface was then regenerated with NaCl (200 mM). For each injection of ZL0181 binding to the FGF14WT or the Nav1.6, the nonspecific responses were subtracted from the responses obtained for control prior to data analysis. Maximal equilibrium responses were plotted against the concentrations of ZL0181, and the equilibrium dissociation constant (KD) was calculated from the fitted saturation binding curve. Fitted binding curves were judged to be accurate based on the distribution of the residuals (even and near zero). Graphs were plotted in GraphPad Prism 6 Software (La Jolla, Calif.).
The role of ZL0181 was further determined by surface plasmon resonance spectroscopy. […]

Question: What does the source list for `CC(C)C[C@H](NC(=O)[C@H](Cc1ccccc1)NC(=O)OCc1ccccc1)C(=O)N1CCC[C@H]1C(=O)N[C@@H](CCCCNC(=O)OC(C)(C)C)C(N)=O` [ZL0181, Z-Phe-Leu-Pro-Lys(Boc)-NH2] (Cbz-FLPK(Boc)-NH2)?
Answer: luminescence response compared to control (DMSO) [1]: 75±6%; activation and inactivation properties of Nav channel alone ([2]; 20 μM, HEK-Nav1.6 cells with GFP): does not change activation and inactivation properties; IC50 ([2]; HEK293-Nav1.6 cells alone, doses 1 μM to 100 μM, read-out: IC50, inhibition of Nav1.6 encoded currents): 19.7 ± 5.7 µM; Nav1.6-mediated peak current density ([2]; HEK-Nav1.6 cells with GFP, pretreated with 20 μM, n=12, DMSO control −73.8±13.6): −20.9±3.4 pA/pF; Kd [3]: 13 µM
